Where “and” joins values, the source holds several entries; their conditions need not be identical. Identical values can stand only once. Toxic doses and inconclusive results are not listed.
Test system: P388 leukemia ip, CD2F1 mice, survival T/C
Test: NCI In Vivo Anticancer Drug Screen. Data for tumor model P388 Leukemia (intraperitoneal) in CD2F1 (CDF1) mice
Conditions: endpoint: median survival time, higher = longer survival
How it was run: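 Mice carrying the transplanted tumor received test compound or vehicle. Survival was recorded in each group, and the value is the treated-group measurement divided by that of the vehicle-treated control group.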

[1] = dose: 50.0 mg/kg/injection, schedule: Q01DX009 (ip), vehicle: saline with Tween-80
[2] = dose: 100.0 mg/kg/injection, schedule: Q01DX009 (ip), vehicle: saline with Tween-80
[3] = dose: 200.0 mg/kg/injection, schedule: Q01DX009 (ip), vehicle: saline with Tween-80
[4] = dose: 50.0 mg/kg/injection, schedule: Q01DX005 (ip), vehicle: Klucel (hydroxypropylcellulose) (HPC)
[5] = dose: 100.0 mg/kg/injection, schedule: Q01DX005 (ip), vehicle: Klucel (hydroxypropylcellulose) (HPC)
[6] = dose: 200.0 mg/kg/injection, schedule: Q01DX005 (ip), vehicle: Klucel (hydroxypropylcellulose) (HPC)
[7] = dose: 100.0 mg/kg/injection, schedule: Q04DX002 (ip), vehicle: saline with Tween-80
[8] = dose: 200.0 mg/kg/injection, schedule: Q04DX002 (ip), vehicle: saline with Tween-80
[9] = dose: 6.25 mg/kg/injection, schedule: Q01DX009 (ip), vehicle: saline
[10] = dose: 12.5 mg/kg/injection, schedule: Q01DX009 (ip), vehicle: saline
[11] = dose: 50.0 mg/kg/injection, schedule: Q04DX002 (ip), vehicle: saline with Tween-80
[12] = dose: 60.0 mg/kg/injection, schedule: Q01DX005 (ip), vehicle: saline with Tween-80
[13] = dose: 120.0 mg/kg/injection, schedule: Q01DX005 (ip), vehicle: saline with Tween-80
[14] = dose: 240.0 mg/kg/injection, schedule: Q01DX005 (ip), vehicle: saline with Tween-80
[15] = dose: 50.0 mg/kg/injection, schedule: Q01DX005 (ip), vehicle: saline with Tween-80
[16] = dose: 100.0 mg/kg/injection, schedule: Q01DX005 (ip), vehicle: saline with Tween-80
[17] = dose: 50.0 mg/kg/injection, schedule: Q01DX009 (ip), vehicle: Klucel (hydroxypropylcellulose) (HPC)
[18] = dose: 100.0 mg/kg/injection, schedule: Q01DX009 (ip), vehicle: Klucel (hydroxypropylcellulose) (HPC)
[19] = dose: 200.0 mg/kg/injection, schedule: Q01DX009 (ip), vehicle: Klucel (hydroxypropylcellulose) (HPC)

For C=C(Cl)CN(CCCC(=O)O)c1ccccc1, the T/C (dose: 100.0 mg/kg/injection, schedule: Q04DX003 (ip), vehicle: other) was 100 % of control, the T/C (dose: 200.0 mg/kg/injection, schedule: Q04DX003 (ip), vehicle: other) was 109 % of control and the T/C (dose: 400.0 mg/kg/injection, schedule: Q04DX003 (ip), vehicle: other) was 90 % of control.
In the case of CCOc1cc2c(Cl)ncnc2c(OCC)c1OCC, the T/C [1] is reported as 105 % of control, the T/C [2] is reported as 91 % of control and the T/C [3] is reported as 106 % of control.
For BrCCc1cc(Br)c(CCBr)cc1Br, the T/C [4] was 97 % of control, the T/C [5] was 97 % of control and the T/C [6] was 107 % of control.
For O=C1c2ccccc2C(=O)C1(Br)c1ccccc1, the T/C [7] was 99 % of control and the T/C [8] was 101 % of control.
In the case of COC(=O)C1=C(C(=O)OC)[C]([Hg][CH3])(C(C)=O)N=N1 (stereo not drawn), the T/C (dose: 1.56 mg/kg/injection, schedule: Q01DX009 (ip), vehicle: saline) is reported as 88 % of control, the T/C (dose: 3.12 mg/kg/injection, schedule: Q01DX009 (ip), vehicle: saline) is reported as 88 % of control and the T/C [9] is reported as 93 % of control. For the same compound, the T/C [10] was 106 % of control.
For NC(=O)Cc1noc2ccccc12, the T/C (dose: 400.0 mg/kg/injection, schedule: Q01DX009 (ip), vehicle: saline with Tween-80) was 106 % of control and 88 % of control.
With CCOCCOC(=O)c1nn(-c2ccc(Cl)cc2)c2c1C(=O)c1ccccc1C2=O the T/C [4] was 94 % of control, the T/C [5] was 100 % of control and the T/C [6] was 101 % of control.
In the case of CCN(C)c1nc(N(C)C)nc(N(C)C)n1, the T/C [11] is reported as 100 % of control, the T/C (dose: 50.0 mg/kg/injection, schedule: Q04DX002 (ip), vehicle: saline) is reported as 109 % of control and the T/C [7] is reported as 107 % of control. For the same compound, the T/C (dose: 100.0 mg/kg/injection, schedule: Q04DX002 (ip), vehicle: saline) was 110 % of control, the T/C [8] was 100 % of control and the T/C (dose: 200.0 mg/kg/injection, schedule: Q04DX002 (ip), vehicle: saline) was 109 % of control.
Cc1cc(C)n(C2=NC3(C)NC(=O)NC3(C)N2)n1 (stereo not drawn) was tested, and the T/C [11] was 98 % of control, the T/C [7] was 94 % of control and the T/C [8] was 98 % of control.
C[CH2][Sn]([c]1ccccc1)([c]1ccccc1)[c]1ccccc1 was tested, and the T/C (dose: 12.5 mg/kg/injection, schedule: Q04DX003 (ip), vehicle: saline with Tween-80) was 95 % of control, the T/C (dose: 25.0 mg/kg/injection, schedule: Q04DX003 (ip), vehicle: saline with Tween-80) was 100 % of control and the T/C (dose: 50.0 mg/kg/injection, schedule: Q04DX003 (ip), vehicle: saline with Tween-80) was 100 % of control.
With CCc1cccc(C(C)C)c1NC1=C([n+]2ccc(C)cc2)C(=O)c2ccccc2C1=O the T/C [12] was 117 % of control, the T/C [13] was 106 % of control and the T/C [14] was 119 % of control.
With CC(C)(C)OC(=O)N1CCCC1C(=O)N1CCCC1C(=O)Oc1ccccc1 (stereo not drawn) the T/C (dose: 50.0 mg/kg/injection, schedule: Q01DX005 (ip), vehicle: saline) was 100 % of control, the T/C (dose: 100.0 mg/kg/injection, schedule: Q01DX005 (ip), vehicle: saline) was 100 % of control and the T/C (dose: 200.0 mg/kg/injection, schedule: Q01DX005 (ip), vehicle: saline) was 100 % of control.
In the case of Nc1ccc(N)c(N)n1, the T/C [9] is reported as 95 % of control, the T/C [10] is reported as 104 % of control and the T/C (dose: 25.0 mg/kg/injection, schedule: Q01DX009 (ip), vehicle: saline) is reported as 100 % of control.
For CNC(=O)Nc1nccs1, the T/C [1] was 105 % of control, the T/C [2] was 96 % of control and the T/C [3] was 97 % of control.
For CN(C)C1C(=O)C(C(N)=O)=C(O)C2(O)C(=O)C3=C(O)c4c(O)cccc4C(C)(O)C3CC12.[Cl][Sb]([Cl])[Cl] (stereo not drawn), the T/C [15] was 119 % of control and the T/C [16] was 108 % of control.
With COc1ccc(-n2c(C)c(COC(C)=O)c(COC(C)=O)c2C)cc1 the T/C [10] was 157 % of control and 163 % of control.
With O=C1Cc2ccccc2C(O)=C1c1cnccn1 the T/C (dose: 15.0 mg/kg/injection, schedule: Q01DX005 (ip), vehicle: saline with Tween-80) was 93 % of control, the T/C (dose: 30.0 mg/kg/injection, schedule: Q01DX005 (ip), vehicle: saline with Tween-80) was 99 % of control and the T/C [12] was 101 % of control and 102 % of control.
For NC(=O)NN(Cc1cccc(Cl)c1)N=O, the T/C (dose: 100.0 mg/kg/injection, schedule: Q04DX003 (ip), vehicle: Klucel (hydroxypropylcellulose) (HPC)) was 95 % of control, the T/C (dose: 200.0 mg/kg/injection, schedule: Q04DX003 (ip), vehicle: Klucel (hydroxypropylcellulose) (HPC)) was 94 % of control and the T/C (dose: 400.0 mg/kg/injection, schedule: Q04DX003 (ip), vehicle: Klucel (hydroxypropylcellulose) (HPC)) was 98 % of control.
In the case of CC1C(O)CC23COC(=O)C2=CCCC3C1(C)CCC1=CC(=O)OC1 (stereo not drawn), the T/C (dose: 8.75 mg/kg/injection, schedule: Q01DX005 (ip), vehicle: Klucel (hydroxypropylcellulose) (HPC)) is reported as 101 % of control, the T/C (dose: 17.5 mg/kg/injection, schedule: Q01DX005 (ip), vehicle: Klucel (hydroxypropylcellulose) (HPC)) is reported as 106 % of control and the T/C (dose: 35.0 mg/kg/injection, schedule: Q01DX005 (ip), vehicle: Klucel (hydroxypropylcellulose) (HPC)) is reported as 92 % of control. The T/C (dose: 70.0 mg/kg/injection, schedule: Q01DX005 (ip), vehicle: Klucel (hydroxypropylcellulose) (HPC)) was 97 % of control.
With CCCCC(CCCC)=NO the T/C [15] was 108 % of control and the T/C [16] was 100 % of control.
For COc1ccccc1N=C(NC#N)C(c1ccccc1)c1ccccc1, the T/C (dose: 100.0 mg/kg/injection, schedule: Q01DX001 (ip), vehicle: saline with Tween-80) was 99 % of control, the T/C (dose: 200.0 mg/kg/injection, schedule: Q01DX001 (ip), vehicle: saline with Tween-80) was 97 % of control and the T/C (dose: 400.0 mg/kg/injection, schedule: Q01DX001 (ip), vehicle: saline with Tween-80) was 93 % of control.
With COC1=CC(=O)OC(/C=C/c2ccccc2)(OC)C1=O (stereo not drawn) the T/C [12] was 102 % of control, the T/C [13] was 110 % of control and the T/C [14] was 101 % of control.
In the case of CCCCOc1ccc2nccc(N/N=C/c3ccc(OC)c4ccccc34)c2c1, the T/C (dose: 12.5 mg/kg/injection, schedule: Q01DX005 (ip), vehicle: Klucel (hydroxypropylcellulose) (HPC)) is reported as 88 % of control, the T/C (dose: 25.0 mg/kg/injection, schedule: Q01DX005 (ip), vehicle: Klucel (hydroxypropylcellulose) (HPC)) is reported as 88 % of control and the T/C [4] is reported as 92 % of control and 94 % of control.
For O=C1SC(Nc2ccc([N+](=O)[O-])cc2)/C(=N\N=C2/C(Nc3ccc([N+](=O)[O-])cc3)SC(=O)N2Cc2ccccc2)N1Cc1ccccc1 (stereo not drawn), the T/C (dose: 100.0 mg/kg/injection, schedule: Q04DX002 (ip), vehicle: Klucel (hydroxypropylcellulose) (HPC)) was 95 % of control, the T/C (dose: 200.0 mg/kg/injection, schedule: Q04DX002 (ip), vehicle: Klucel (hydroxypropylcellulose) (HPC)) was 95 % of control and the T/C (dose: 400.0 mg/kg/injection, schedule: Q04DX002 (ip), vehicle: Klucel (hydroxypropylcellulose) (HPC)) was 97 % of control.
In the case of COC(=O)c1nc(N)nc(C(=O)OC)c1C(=O)c1ccc(C)cc1, the T/C [12] is reported as 98 % of control and the T/C [13] is reported as 100 % of control.
With O=C(Nc1ccccc1)c1cnc[nH]1 the T/C (dose: 25.0 mg/kg/injection, schedule: Q01DX009 (ip), vehicle: Klucel (hydroxypropylcellulose) (HPC)) was 99 % of control, the T/C [17] was 102 % of control and the T/C [18] was 102 % of control. For the same compound, the T/C [19] was 96 % of control.
With CN1C2CCC(=O)C1CC2 (stereo not drawn) the T/C (dose: 6.25 mg/kg/injection, schedule: Q01DX005 (ip), vehicle: saline + Tween-80 + alcohol) was 100 % of control, the T/C (dose: 12.5 mg/kg/injection, schedule: Q01DX005 (ip), vehicle: saline + Tween-80 + alcohol) was 100 % of control and the T/C (dose: 25.0 mg/kg/injection, schedule: Q01DX005 (ip), vehicle: saline + Tween-80 + alcohol) was 99 % of control.
With Nc1ccc2ccccc2c1-c1cccc2ccccc12 the T/C [15] was 96 % of control, the T/C [16] was 96 % of control and the T/C [7] was 102 % of control. The T/C (dose: 200.0 mg/kg/injection, schedule: Q01DX005 (ip), vehicle: saline with Tween-80) was 102 % of control, the T/C [8] was 102 % of control and the T/C (dose: 400.0 mg/kg/injection, schedule: Q04DX002 (ip), vehicle: saline with Tween-80) was 92 % of control.
In the case of NNS(=O)(=O)c1cc(Cl)c(Cl)cc1Cl, the T/C [17] is reported as 94 % of control, the T/C [18] is reported as 98 % of control and the T/C [19] is reported as 95 % of control.

From PubChem BioAssay AID330 (DTP/NCI, 2004)
